2 molecules from article PMC5755735, “Discovery of indolylpiperazinylpyrimidines with dual-target profiles at adenosine A2A and dopamine D2 receptors for Parkinson's disease treatment” (PLoS ONE, 2018) can be followed below.

One data set is described as follows: aqueous solubility. In kind it is physicochemical. The settings on record: universal aqueous buffer, 22.5 °C, pH 7.4, aqueous buffer, kinetic from dmso stock. As for the experimental part: The 10 μL stock solution of the ligand (10 mM in DMSO) was added to the universal aqueous buffer (pH 7.4), and the mixture was sonicated. 300 μL of the turbid mixture was transferred to the 3 wells of MultiScreen HTS- PCF filter plate (Millipore Corp., Ireland), and the plate was covered and incubated with gentle shaking (250 rpm, 3 h) at room temperature (22.5 ± 2.5°C). After the period of incubation (3 h), the filter plate was placed on a vacuum manifold and the contents were filtered into a 96-well UV plate. After filtration, 200 μL of filtrate was transferred from each well to the PP vial. Absorbances of the solutions were quantified by HPLC-UV and read at 250 nm.

Data set [1] concerns the target human dopamine D2 receptor (Homo sapiens, UniProt P14416). As to the kind of experiment: adenylyl cyclase inhibition (cAMP accumulation) assay in CHO cells transfected with D2 receptor. In kind it is cell-based. Details: expressed in transfected cells; host or cells: CHO cells.
Description: CHO cells transfected with D2 receptors were cultured and then serum starved overnight. Cells were treated with various concentrations of ligands (25 μL of 10X solution), stimulated with forskolin (0.5 μM) and 3-isobutyl-1-methylxanthine (IBMX) (0.5 mM), and incubated for 15 minutes. After lysis, cAMP content was determined by ELISA.

Where two headings read alike, the source gives them in different places. A value given as a limit tells only on which side of the number the result lay.

human dopamine D2 receptor, sequence (P14416 whole entry): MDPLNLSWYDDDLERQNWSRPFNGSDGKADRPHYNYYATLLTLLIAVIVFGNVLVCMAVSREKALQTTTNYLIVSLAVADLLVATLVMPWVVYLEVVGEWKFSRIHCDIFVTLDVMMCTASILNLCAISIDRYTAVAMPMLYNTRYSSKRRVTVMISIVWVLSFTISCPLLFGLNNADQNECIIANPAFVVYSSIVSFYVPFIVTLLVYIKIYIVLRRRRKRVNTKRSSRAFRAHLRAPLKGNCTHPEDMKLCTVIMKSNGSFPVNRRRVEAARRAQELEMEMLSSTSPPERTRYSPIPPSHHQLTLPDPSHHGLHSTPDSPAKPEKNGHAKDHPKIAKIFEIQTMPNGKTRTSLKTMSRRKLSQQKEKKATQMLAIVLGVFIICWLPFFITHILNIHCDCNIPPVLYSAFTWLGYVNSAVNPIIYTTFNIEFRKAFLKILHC

In the case of `Cc1cc(C)nc(N2CCN(C(=O)c3c[nH]c4ccccc34)CC2)n1` [Compound 5, 3‐[4‐(4,6‐Dimethylpyrimidin‐2‐yl)piperazine‐1‐carbonyl]‐1H‐indole], the solubility at 3 h in “aqueous solubility” (ambient temperature, pH 7.4, guideline of Kerns et al. [40], read-out: aqueous solubility class) is under 10 µg/mL; in the data set “aqueous solubility” (pH 7.4, 3 h, room temperature, read-out: Solubility (μM), 3 h) it was 27 ± 0.32 µM; in “aqueous solubility” (pH 7.4, 3 h, room temperature, read-out: Solubility (μg/mL), 3 h), 9.07 ± 0.11 µg/mL.

For the molecule `Cc1cc(C)nc(N2CCN(C(=O)Cc3c(C)[nH]c4ccccc34)CC2)n1` [Compound 6, 1‐[4‐(4,6‐Dimethylpyrimidin‐2‐yl)piperazin‐1‐yl]‐2‐(2‐methyl‐1H‐indol‐3‐yl)ethan‐1‐one], the “functional activity at D2 receptor (cAMP accumulation induced by forskolin/IBMX)” value in data set [1] (1 μM, 10 μM and 100 μM) is “acted as a D2 receptor agonist”. Further, in data set [1] (100 μM, p = 0.0232), the “inhibition of cAMP accumulation (optimal inhibition)” value was “comparable potency to 100 nM of quinpirole”.
